Experimental data published in article PMC12042115 (mLife, 2025).
Like-named read-outs stand apart in the source and are kept apart here.

Test system: wild‐type BCG cells
Format: cell-based, M. bovis BCG
Conditions: for Mean Ratio: GDI5755_2d vs DMSO_2d; for Mean Ratio / Mean Ratio (GDI5755_2d vs DMSO_2d): up-regulated; for Mean_Ratio (GDI5755_3d vs DMSO_3d): down-regulated, 3 d; for Mean Ratio (GDI5755_2d vs DMSO_2d): 2d

O=C(Oc1ccc(Cl)cc1)c1ccc(N2CCOCC2)c([N+](=O)[O-])c1 [GDI‐5755]
Mean Ratio (protein A0A0H3M8Y9 Cyclase): 1.26
Mean Ratio (protein A0A0H3M9B9 Acetoacetate decarboxylase): 1.28
Mean Ratio (protein A0A0H3M9C3 DUF3039 domain-containing protein): 1.28
Mean Ratio (protein A0A0H3M9D8 Possible conserved membrane alanine rich protein): 1.31
Mean Ratio (protein A0A0H3M9I1 Probable conserved secreted protein): 1.30
Mean Ratio (protein A0A0H3M9I4 Probable membrane glycine and proline rich protein): 1.25
Mean Ratio (protein A0A0H3M9K0 Probable penicillin-binding protein pbpA): 1.25
Mean_Ratio (GDI5755_3d vs DMSO_3d) (protein A0A0H3M9N6, BCG_0093 (Rv0062), Glucanase): 0.7
Mean_Ratio (GDI5755_3d vs DMSO_3d) (protein A0A0H3M9Q0, BCG_2848c (Rv2828A), COGs COG0840): 0.7
Mean Ratio (protein A0A0H3M9S4 Carrier domain-containing protein): 1.26
Mean Ratio (GDI5755_2d vs DMSO_2d) (protein A0A0H3M9U5 Phosphatidate cytidylyltransferase): 1.38
Mean_Ratio (GDI5755_3d vs DMSO_3d) (protein A0A0H3M9Z8, BCG_2971c (Rv2950c), Probable fatty-acid-CoA ligase fadD29): 0.7
Mean Ratio (protein A0A0H3M9Z9 Probable conserved transmembrane protein rich in alanine and arginine and proline): 1.28
Mean Ratio (protein A0A0H3M143 peptidoglycan glycosyltransferase): 1.26
Mean_Ratio (GDI5755_3d vs DMSO_3d) (protein A0A0H3M233, BCG_0693c (Rv0644c), Methoxy mycolic acid synthase 2 mmaA2): 0.7
Mean_Ratio (GDI5755_3d vs DMSO_3d) (protein A0A0H3M245, BCG_0704 (Rv0655), Possible ribonucleotide-transport ATP-binding protein ABC transporter mkl): 0.7
Mean Ratio (GDI5755_2d vs DMSO_2d) (protein A0A0H3M252 Probable glutamine-binding lipoprotein glnH): 1.33
Mean Ratio (GDI5755_2d vs DMSO_2d) (protein A0A0H3M331 Uncharacterized protein): 1.34
Mean_Ratio (GDI5755_3d vs DMSO_3d) (protein A0A0H3M363, BCG_0875c (Rv0822c), Cell envelope-associated transcriptional attenuator LytR-CpsA-Psr, subfamily A1): 0.752
Mean_Ratio (GDI5755_3d vs DMSO_3d) (protein A0A0H3M469, BCG_1204c (MRA_1152), Probable enoyl-CoA hydratase echA10): 0.742
Mean_Ratio (GDI5755_3d vs DMSO_3d) (protein A0A0H3M476, BCG_0711c (Rv0662c), Ribbon-helix-helix protein CopG domain-containing protein): 0.7
Mean Ratio (protein A0A0H3M482 Conserved transmembrane protein): 1.29
Mean_Ratio (GDI5755_3d vs DMSO_3d) (protein A0A0H3M495, BCG_1238c (Rv1175c), Probable NADPH dependent 2,4-dienoyl-CoA reductase fadH): 0.758
Mean Ratio (protein A0A0H3M519 Probable conserved lipoprotein): 1.28
Mean Ratio (protein A0A0H3M628 Probable lipoprotein lppP): 1.31
Mean Ratio (GDI5755_2d vs DMSO_2d) (protein A0A0H3M639 Probable metal cation transporter P-type atpase G ctpG): 1.33
Mean Ratio (GDI5755_2d vs DMSO_2d) (protein A0A0H3M660 Conserved membrane protein): 1.39
Mean Ratio (protein A0A0H3M672 Sirohydrochlorin cobaltochelatase): 1.28
Mean Ratio (protein A0A0H3M707 Probable conserved integral membrane alanine and valine and leucine rich protein): 1.26
Mean_Ratio (GDI5755_3d vs DMSO_3d) (protein A0A0H3M735, BCG_2390c (Rv2376c), Low molecular weight antigen cfp2): 0.7
Mean_Ratio (GDI5755_3d vs DMSO_3d) (protein A0A0H3M760, BCG_0066 (Rv0035), Probable fatty-acid-coa ligase fadD34): 0.7
Mean Ratio (protein A0A0H3M769 Lipid/polyisoprenoid-binding YceI-like domain-containing protein): 1.28
Mean_Ratio (GDI5755_3d vs DMSO_3d) (protein A0A0H3M827, BCG_2840c (Rv2821c), CRISPR system Cms endoribonuclease Csm3): 0.7
Mean_Ratio (GDI5755_3d vs DMSO_3d) (protein A0A0H3M844, BCG_2251 (Rv2234), Phosphotyrosine protein phosphatase ptpA): 0.7
Mean Ratio (protein A0A0H3M847 Probable conserved transmembrane alanine rich protein): 1.26
Mean_Ratio (GDI5755_3d vs DMSO_3d) (protein A0A0H3M848, BCG_3111 (Rv3086), alcohol dehydrogenase, adhD): 0.761
Mean Ratio (GDI5755_2d vs DMSO_2d) (protein A0A0H3M855 Acyl carrier protein): 1.34
Mean Ratio (protein A0A0H3M918 Protein-export membrane protein SecF): 1.28
Mean_Ratio (GDI5755_3d vs DMSO_3d) (protein A0A0H3M922, BCG_3278c (Rv3249c), Possible transcriptional regulatory protein (Probably tetR-family)): 0.757
Mean_Ratio (GDI5755_3d vs DMSO_3d) (protein A0A0H3M964, BCG_1004c (Rv0950c), Peptidase M23 domain-containing protein): 0.7
Mean Ratio (protein A0A0H3M969 HNH nuclease domain-containing protein): 1.26
Mean_Ratio (GDI5755_3d vs DMSO_3d) (protein A0A0H3M984, BCG_3389c (Rv3323c), Probable moaD-moaE fusion protein moaX): 0.756
Mean Ratio (GDI5755_2d vs DMSO_2d) (protein A0A0H3MA04 ATP-dependent zinc metalloprotease FtsH): 1.34
Mean_Ratio (GDI5755_3d vs DMSO_3d) (protein A0A0H3MA19, BCG_0251 (Rv0214), Probable fatty-acid-CoA ligase fadD4): 0.739
Mean_Ratio (GDI5755_3d vs DMSO_3d) (protein A0A0H3MA36, BCG_3704c (Rv3646c), DNA topoisomerase 1): 0.7
Mean_Ratio (GDI5755_3d vs DMSO_3d) (protein A0A0H3MA81, BCG_1461c (Rv1400c), Probable lipase lipH): 0.751
Mean Ratio (protein A0A0H3MAA3 Possible conserved membrane protein): 1.25
Mean_Ratio (GDI5755_3d vs DMSO_3d) (protein A0A0H3MAA7, BCG_0352 (Rv0312), Conserved hypothetical proline and threonine rich protein): 0.739
Mean Ratio (GDI5755_2d vs DMSO_2d) (protein A0A0H3MAB2 Conserved membrane protein): 1.33
Mean_Ratio (GDI5755_3d vs DMSO_3d) (protein A0A0H3MAC6, BCG_0385c (Rv0346c), l-asparagine permease ansP2): 0.7
Mean Ratio (GDI5755_2d vs DMSO_2d) (protein A0A0H3MAC8 Possible conserved transmembrane protein): 1.38
Mean_Ratio (GDI5755_3d vs DMSO_3d) (protein A0A0H3MAD2, BCG_0398c (Rv0360c), DUF3151 domain-containing protein): 0.7
Mean Ratio (protein A0A0H3MAE2 Probable carbon monoxyde dehydrogenase (Medium chain)): 1.31
Mean Ratio (protein A0A0H3MAF8 Serine/threonine-protein kinase PknG): 1.26
Mean_Ratio (GDI5755_3d vs DMSO_3d) (protein A0A0H3MAI2, BCG_0498 (Rv0458), Probable aldehyde dehydrogenase): 0.7
Mean_Ratio (GDI5755_3d vs DMSO_3d) (protein A0A0H3MAI6, BCG_3192 (Rv3168), Aminoglycoside phosphotransferase domain-containing protein): 0.7
Mean_Ratio (GDI5755_3d vs DMSO_3d) (protein A0A0H3MAK6, BCG_0543 (Rv0500A), Helix-turn-helix domain-containing protein): 0.757
Mean_Ratio (GDI5755_3d vs DMSO_3d) (protein A0A0H3MAL3, BCG_3212c (Rv3190c), Restriction endonuclease): 0.7
Mean Ratio (protein A0A0H3MAP0 Conserved hypothetical alanine valine rich protein): 1.28
Mean Ratio (protein A0A0H3MAW6 Uncharacterized protein): 1.27
Mean Ratio (protein A0A0H3MAY5 (BCG_0774) Possible protease IV sppA (Endopeptidase IV)): 1.28
Mean_Ratio (GDI5755_3d vs DMSO_3d) (protein A0A0H3MB28, BCG_3433c (Rv3361c), Pentapeptide repeat protein MfpA): 0.741
Mean_Ratio (GDI5755_3d vs DMSO_3d) (protein A0A0H3MB50, BCG_3459 (Rv3390), Probable conserved lipoprotein lpqD): 0.7
Mean_Ratio (GDI5755_3d vs DMSO_3d) (protein A0A0H3MB93, BCG_3517 (Rv3451), Cutinase): 0.7
Mean_Ratio (GDI5755_3d vs DMSO_3d) (protein A0A0H3MB98, BCG_1906c (Rv1870c), Endonuclease): 0.7
Mean_Ratio (GDI5755_3d vs DMSO_3d) (protein A0A0H3MBC9, BCG_3565c (Rv3501c), Conserved hypothetical integral membrane protein yrbE4A): 0.7
